The values that follow come from US20110195979A1, “COMPOUNDS FOR THE TREATMENT AND PREVENTION OF INFLUENZA” (priority 2010, published 2011).

The test system of series [1] is MDCK cells. Description: in vitro. As to conditions: dog, Cytotoxicy IC50.
For series [2], the system named is Influenza H1N1 virus. Description: Viral cytopathic effect (CPE) assay. It is filed as cell-based, Influenza A (H1N1). As to conditions: Influenza A virus, H1N1, MDCK, 72 h, read-out: CPE_EC50. The protocol:
Cells and viruses. Madin-Darby canine kidney cell (MDCK) was purchased from American type culture collection (ATCC) and was maintained in minimal essential medium (MEM) containing 10% fetal bovine serum and antibiotics. Influenza A/Weiss/43 (H1N1), A/PR/8/34 (H1N1), and A/Hongkong/8/68 (H3N2) were purchased from ATCC and propagated in 10-day-old embryonated chicken eggs at 37° C. Virus was harvested 48 h after inoculation as pooled allantoic fluid. After a brief centrifugation (3,000 rpm at room temperature for 20 min) and virus titer measurement by a hemagglutination test, virus was aliquoted and stored at a −80° C. freezer.
Viral cytopathic effect (CPE) assay: To measure anti-influenza activity of compounds, MDCK cells were seeded into 96-well plates at a density of 5,000 cells per well. Next day, compounds were serially half-log diluted with Gibco SFM containing trypsin. Compounds and 50 pfu of virus were added into corresponding wells to make m.o.i at 0.01 and a final trypsin concentration of 2.5 μg/ml. The testing plates also contained medium control, cell control, virus control, and compound toxicity control. After a 3-day treatment, cell viability was measured with a MTT (3-(4,5-dimethylthiazol-2-yl)-2,5-diphenyltetrazolium bromide) method. Briefly, 20 μl of MTT diluted in culture medium was added into each wells and incubated at 37° C. for 4 hours. Reduced MTT (formazan) was extracted with acidic isopropanol and absorbance at wavelengths of 570 nm and 630 nm (OD570 and OD630) was read on a microtiter plate reader. After subtraction of background OD values, dose response curves of half-log concentration vs. percent protection were generated, on which half maximal effective concentration (EC50) and half maximal toxic concentration (CC50) were calculated.

`CC1(C)CC(O)CC(C)(C(=O)Nc2cc(F)cc(F)c2)C1` (stereo not drawn) [Example IVa-11, (cis-1,5)-5-Hydroxy-1,3,3-trimethyl-cyclohexanecarboxylic acid(3,5-difluoro-phenyl)-amide]: the IC50 at 3 day in series [1] is > 100 µM. The EC50 in series [2] came to 0.32 µM.
Taken in the same sequence, the figures for `CC(=O)N(C(C)=O)C1CC(C)(C)CC(C)(C(=O)Nc2cccc(Cl)c2)C1` (stereo not drawn) [Example IVb-3, (cis-1,5)-Diacetylamino-1,3,3-trimethyl-cyclohexanecarboxylic acid(3-chloro-phenyl)-amide] were 22.9 µM and 3.15 µM.
With `Cc1cc(Cl)cc(NCC2(C)CC(O)CC(C)(C)C2)c1` (stereo not drawn) [Example IIa-18, (cis-1,3)-3-[(3-Chloro-5-methyl-phenylamino)-methyl]-3,5,5-trimethyl-cyclohexanol], in series [1], the IC50 at 3 day was > 3.16 µM. Further, the EC50 in series [2] turned out to be 0.025 µM.
As to `CC1(C)CC(O)CC(C)(CNc2cc(S(N)(=O)=O)ccn2)C1` (stereo not drawn) [Example IIIa-8, 2-[((cis-1,5)-5-Hydroxy-1,3,3-trimethyl-cyclohexylmethyl)-amino]-pyridine-4-sulfonic acid amide], the IC50 at 3 day in series [1] was > 100 µM. The EC50 in series [2] came to 0.98 µM.
`CC1(C)CC(O)CC(C)(C(=O)Nc2cc(Cl)cc(C(F)(F)F)c2)C1` (stereo not drawn) [Example IVa-14, (cis-1,5)-5-Hydroxy-1,3,3-trimethyl-cyclohexanecarboxylic acid(3-chloro-5-trifluoromethyl-phenyl)-amide] registered an IC50 at 3 day in series [1] of 22.2 µM. Also, in series [2], the EC50 was determined as 0.019 µM.
Taken in the same sequence, the figures for `CC1(C)CC(C)(O)CC(C)(CNc2cc(F)cc(C(F)(F)F)c2)C1` (stereo not drawn) [Example IIg-1, (cis-1,3)-3-[(3-Fluoro-5-trifluoromethyl-phenylamino)-methyl]-1,3,5,5-tetramethyl-cyclohexanol] were > 3.16 µM and 0.089 µM.
Taken in the same sequence, the figures for `CN(CC1(C)CC(O)CC(C)(C)C1)c1cccc(Cl)c1` (stereo not drawn) [Example IIb-1, (cis-1,3)-3-{[(3-Chloro-phenyl)-methyl-amino]-methyl}-3,5,5-trimethyl-cyclohexanol] were 7.58 µM and 0.6 µM.
Taken in the same sequence, the figures for `CC(=O)NC1CC(C)(C)CC(C)(C(=O)Nc2cccc(Cl)c2)C1` (stereo not drawn) [Example IVb-2, (cis-1,5)-5-Acetylamino-1,3,3-trimethyl-cyclohexanecarboxylic acid(3-chloro-phenyl)-amide] were > 100 µM and 4.61 µM.
The compound `CC1(C)CC(O)CC(C)(C(=O)Nc2ccc(Cl)c(Cl)c2)C1` (stereo not drawn) [Example IVa-20, (cis-1,5)-5-Hydroxy-1,3,3-trimethyl-cyclohexanecarboxylic acid(3,4-dichloro-phenyl)-amide] came in with an IC50 at 3 day in series [1] of 9.63 µM. Further, the EC50 in series [2] was 0.627 µM.
For the compound `CC(=O)OC1CC(C)(C)CC(C)(CNc2ccccc2)C1` (stereo not drawn) [Example IId-1, Acetic acid (cis-1,5)-3,3,5-trimethyl-5-phenylaminomethyl-cyclohexyl ester], the IC50 at 3 day in series [1] was found to be 64.4 µM. In series [2], the EC50 came to 0.492 µM.
The matching figures for `CC1(C)CC(F)(F)CC(C)(CNc2nc3ccccc3o2)C1` (stereo not drawn) [Example IIIc-2, Benzoxazol-2-yl-(3,3-difluoro-1,5,5-trimethyl-cyclohexylmethyl)-amine]: 10.9 µM and 3.36 µM.
The matching figures for `CC1(C)CC(O)CC(C)(CNc2cc(F)cc(C(F)(F)F)c2)C1` (stereo not drawn) [Example IIa-17, (cis-1,3)-3-[(3-Fluoro-5-trifluoromethyl-phenylamino)-methyl]-3,5,5-trimethyl-cyclohexanol]: 3.66 µM and 0.018 µM.
For `Cc1cc(C)nc(NCC2(C)CC(O)CC(C)(C)C2)n1` (stereo not drawn) [Example IIIa-13, (cis-1,3)-3-[(4,6-Dimethyl-pyrimidin-2-ylamino)-methyl]-3,5,5-trimethyl-cyclohexanol], the IC50 at 3 day in series [1] is > 100 µM. The EC50 in series [2] amounted to 1.37 µM.
The matching figures for `CC1(C)CC(O)CC(C)(CNc2cc(Br)cc(C(F)(F)F)c2)C1` (stereo not drawn) [Example IIa-21, (cis-1,3)-3-[(3-Bromo-5-trifluoromethyl-phenylamino)-methyl]-3,5,5-trimethyl-cyclohexanol]: > 3.16 µM and 0.058 µM.
Taken in the same sequence, the figures for `CC1(C)CC(O)CC(C)(C(=O)Nc2cc(Cl)cc(Cl)c2)C1` (stereo not drawn) [Example IVa-17, (cis-1,5)-5-Hydroxy-1,3,3-trimethyl-cyclohexanecarboxylic acid(3,5-dichloro-phenyl)-amide] were 23.2 µM and 0.049 µM.
As to `CC1(C)CC(O)CC(C)(C(=O)Nc2cc(F)cc(Cl)c2)C1` (stereo not drawn) [Example IVa-12, (cis-1,5)-5-Hydroxy-1,3,3-trimethyl-cyclohexanecarboxylic acid(3-chloro-5-fluoro-phenyl)amide], the IC50 at 3 day in series [1] stood at 56.4 µM. Besides, the EC50 in series [2] turned out to be 0.055 µM.
The matching figures for `CC1(C)CC(NS(C)(=O)=O)CC(C)(C(=O)Nc2cccc(Cl)c2)C1` (stereo not drawn) [Example IVb-4, (cis-1,5)-5-Methanesulfonylamino-1,3,3-trimethyl-cyclohexanecarboxylic acid(3-chloro-phenyl)-amide]: > 100 µM and 2.77 µM.
In turn, `CC1(C)CC(O)CC(C)(C(=O)Nc2ccc(F)c(C(F)(F)F)c2)C1` (stereo not drawn) [Example IVa-21, (cis-1,5)-5-Hydroxy-1,3,3-trimethyl-cyclohexanecarboxylic acid(4-fluoro-3-trifluoromethyl-phenyl)-amide] showed a half-maximal inhibitory concentration (IC50) at 3 day in series [1] of 29.6 µM. For the same compound, the EC50 in series [2] was determined as 0.454 µM.
With `COc1cccc(NCC2(C)CC(O)CC(C)(C)C2)c1` (stereo not drawn) [Example IIa-8, (cis-1,3)-3-[(3-Methoxy-phenylamino)-methyl]-3,5,5-trimethyl-cyclohexanol], the half-maximal inhibitory concentration (IC50) at 3 day in series [1] was > 50 µM. Also, the EC50 in series [2] stood at 0.2 µM.
Regarding `CC1(C)CC(O)CC(C)(C(=O)Nc2cccc(Cl)c2)C1` (stereo not drawn) [Example IVa-3, (cis-1,5)-5-Hydroxy-1,3,3-trimethyl-cyclohexanecarboxylic acid(3-chloro-phenyl)-amide], in series [1], the half-inhibitory concentration (IC50) at 3 day came to 82.1 µM. Further, the EC50 in series [2] came out at 0.46 µM.
The matching figures for `COc1ccnc(NCC2(C)CC(O)CC(C)(C)C2)n1` (stereo not drawn) [Example IIIa-11, (cis-1,3)-3-[(4-Methoxy-pyrimidin-2-ylamino)-methyl]-3,5,5-trimethyl-cyclohexanol]: > 50 µM and 1.5 µM.
The matching figures for `CC1(C)CC(O)CC(C)(CNc2ccc(Cl)c(Cl)c2)C1` (stereo not drawn) [Example IIa-27, (cis-1,3)-3-[(3,4-Dichloro-phenylamino)-methyl]-3,5,5-trimethyl-cyclohexanol]: 2.49 µM and 0.068 µM.
The matching figures for `CC1(C)CC(O)CC(C)(CNc2ncccc2C(F)(F)F)C1` (stereo not drawn) [Example IIIa-5, (cis-1,5)-3,3,5-Trimethyl-5-[(3-trifluoromethyl-pyridin-2-ylamino)-methyl]-cyclohexanol]: 22.1 µM and < 0.159 µM.
`CC1(C)CC(O)CC(C)(C(=O)Nc2cc(F)cc(C(F)(F)F)c2)C1` (stereo not drawn) [Example IVa-13, (cis-1,5)-5-Hydroxy-1,3,3-trimethyl-cyclohexanecarboxylic acid(3-fluoro-5-trifluoromethyl-phenyl)-amide]: the midpoint of inhibition in series [1], the IC50 at 3 day, lay at 52.8 µM. Besides, the EC50 in series [2] was 0.054 µM.
